The values that follow come from patent publication US8350027B2, “Dual-acting pyrazole antihypertensive agents” (Theravance, Inc., priority 2009, dated 2013).

Bounds are passed on as bounds.

One test concerns the target T1, NEP enzyme (Homo sapiens, UniProt P08473).
T1 construct: purchased R&D Systems, Minneapolis, Minn; 1182-ZN
The test can be described thus: NEP enzyme inhibition assay (fluorogenic peptide substrate). The format is biochemical. Particulars: values given as lower bounds; * = prodrugs, may not exhibit NEP activity in an in vitro assay; read-out: NEP pIC50 (converted). The procedure, abridged: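 Recombinant human NEP was run with Mca-BK2 (10 μM) at room temperature in Tris buffer with 1 μM Zn. Compounds (10 μM–20 pM, 12 points) were pre-equilibrated 10 min, then reacted 20 min and acid-stopped. Fluorescence ex 320/em 405 nm, one-site competition fit gives pIC50. Thiol compounds may be pre-treated with 400 μM TCEP.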

The next test concerns the target T2, human AT1 receptor (Homo sapiens, UniProt P30556).
T2 construct: expressed in transfected cells; host or cells: CHO-K1
T2 sequence (P30556 1-359): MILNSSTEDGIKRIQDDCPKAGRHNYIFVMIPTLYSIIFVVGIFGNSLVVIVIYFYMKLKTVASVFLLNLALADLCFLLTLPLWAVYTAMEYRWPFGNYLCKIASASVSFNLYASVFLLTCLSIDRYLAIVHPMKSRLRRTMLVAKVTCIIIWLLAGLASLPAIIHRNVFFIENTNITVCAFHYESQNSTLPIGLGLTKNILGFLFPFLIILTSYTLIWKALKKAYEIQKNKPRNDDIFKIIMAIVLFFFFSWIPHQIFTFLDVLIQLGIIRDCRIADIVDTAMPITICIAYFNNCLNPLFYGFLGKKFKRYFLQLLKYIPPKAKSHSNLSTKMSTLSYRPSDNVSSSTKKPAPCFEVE
The test can be described thus: AT1 radioligand binding assay (displacement of [Eu]AngII). Particulars: membranes of CHO-K1 cells expressing cloned human AT1 receptor; values given as lower bounds; read-out: AT1 pKi (converted). Summed up:
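Membranes from CHO-K1 cells stably expressing cloned human AT1, 0.2 μg protein, in 50 mM Tris/HCl pH 7.5, 5 mM MgCl2, 0.025% BSA. Compounds displaced [Eu]AngII over 120 min in the dark at room temperature or 37° C; filter-bound TRF read. Nonspecific binding with 10 μM angiotensin II; IC50 converted to Ki via Cheng-Prusoff, reported as pKi.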

T1 sequence (P08473 52-750 limits assumed): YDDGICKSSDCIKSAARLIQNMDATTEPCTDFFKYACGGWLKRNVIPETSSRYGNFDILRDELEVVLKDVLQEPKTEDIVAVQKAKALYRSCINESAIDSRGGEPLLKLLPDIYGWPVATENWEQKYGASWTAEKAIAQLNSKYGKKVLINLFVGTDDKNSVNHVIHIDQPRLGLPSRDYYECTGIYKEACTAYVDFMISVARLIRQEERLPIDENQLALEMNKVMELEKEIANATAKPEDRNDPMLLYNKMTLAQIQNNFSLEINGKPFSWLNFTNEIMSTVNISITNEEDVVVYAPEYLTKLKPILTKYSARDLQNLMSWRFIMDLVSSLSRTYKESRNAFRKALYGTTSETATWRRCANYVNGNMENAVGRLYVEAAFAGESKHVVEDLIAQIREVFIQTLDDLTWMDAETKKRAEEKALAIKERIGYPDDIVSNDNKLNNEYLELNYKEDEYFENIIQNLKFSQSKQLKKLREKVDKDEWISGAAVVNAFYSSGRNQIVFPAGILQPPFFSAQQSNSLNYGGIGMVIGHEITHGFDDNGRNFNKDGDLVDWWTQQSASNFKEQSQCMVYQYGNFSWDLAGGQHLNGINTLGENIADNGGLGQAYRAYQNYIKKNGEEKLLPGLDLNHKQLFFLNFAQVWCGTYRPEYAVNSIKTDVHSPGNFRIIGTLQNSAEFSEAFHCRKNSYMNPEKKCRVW

Take `CCc1cc(C(=O)N[C@H](Cc2ccccc2)[C@@H](O)C(=O)O)nn1Cc1ccc(-c2ccccc2S(=O)(=O)NC(C)=O)cc1F` [Example 6-10, (2R,3R)-3-{[1-(2′-Acetylsulfamoyl-3-fluoro-biphenyl-4-ylmethyl)-5-ethyl-1H-pyrazole-3-carbonyl]amino}-2-hydroxy-4-phenylbutyric acid]: at NEP enzyme, the IC50 was not above 100 nM. The Ki at human AT1 receptor is not above 100 nM.
Take `CCCc1cc(C(=O)N[C@H](Cc2ccccc2)[C@@H](O)C(=O)O)nn1Cc1ccc(-c2ccccc2-c2nc(=O)o[nH]2)cc1` [Example 16-2, (2R,3R)-2-Hydroxy-3-({1-[2′-(5-oxo-2,5-dihydro-[1,2,4]oxadiazol-3-yl)biphenyl-4-ylmethyl]-5-propyl-1H-pyrazole-3-carbonyl}amino)-4-phenylbutyric acid]: the IC50 at NEP enzyme was not above 1000 nM. Also, at human AT1 receptor, the Ki is not above 10 nM.
The matching figures for `CCOc1cc(C(=O)N[C@@H](CS)Cc2ccccc2)nn1Cc1ccc(-c2ccccc2-c2nnn[nH]2)cc1` [Example 3-4, 5-Ethoxy-1-[2′-(1H-tetrazol-5-yl)biphenyl-4-ylmethyl]-1H-pyrazole-3-carboxylic acid ((R)-1-benzyl-2-mercaptoethyl)amide]: not above 100 nM and not above 10 nM.
The matching figures for `CCCc1cc(C(=O)N[C@H](Cc2ccccc2)[C@@H](O)C(=O)O)nn1Cc1ccc(-c2ccccc2S(=O)(=O)NC(=O)[C@H](C)O)cc1` [Example 7-13, (2R,3R)-2-Hydroxy-3-({1-[2′-((S)-2-hydroxypropionylsulfamoyl)biphenyl-4-ylmethyl]-5-propyl-1H-pyrazole-3-carbonyl}amino)-4-phenylbutyric acid]: not above 100 nM and not above 10 nM.
The like results for `CCCc1cc(C(=O)N[C@@H](CC(=O)O)Cc2ccccc2C(F)(F)F)nn1Cc1ccc(-c2ccccc2-c2nnn[nH]2)c(F)c1` [Example 3-19, (R)-3-({1-[2-Fluoro-2′-(1H-tetrazol-5-yl)-biphenyl-4-ylmethyl]-5-propyl-1H-pyrazole-3-carbonyl}amino)-4-(2-trifluoromethylphenyl)butyric acid] were, in that order, not above 1000 nM and not above 100 nM.
Regarding `CCCc1cc(C(=O)N[C@@H](Cc2ccccc2)CN(O)C=O)nn1Cc1ccc(-c2ccccc2S(=O)(=O)NC(C)=O)cc1` [Example 6-22, 1-(2′-Acetylsulfamoylbiphenyl-4-ylmethyl)-5-propyl-1H-pyrazole-3-carboxylic acid [(S)-1-benzyl-2-(formylhydroxyamino)ethyl]amide], at NEP enzyme, the IC50 was not above 100 nM. In addition, the Ki at human AT1 receptor is not above 10 nM.
The like results for `CCCc1cc(C(=O)N[C@H](Cc2ccccc2)[C@@H](O)C(=O)O)nn1Cc1ccc(-c2ccccc2S(=O)(=O)NC(=O)CC)cc1` [Example 7-10, (2R,3R)-2-Hydroxy-4-phenyl-3-{[1-(2′-propionylsulfamoylbiphenyl-4-ylmethyl)-5-propyl-1H-pyrazole-3-carbonyl]amino}butyric acid] were, in that order, not above 100 nM and not above 10 nM.
As to `CCCc1cc(C(=O)N[C@H](Cc2ccccc2)[C@@H](O)C(=O)O)nn1Cc1cnc(-c2ccccc2S(=O)(=O)NC(C)=O)cn1` [Example 17-5, (2R,3R)-3-({1-[5-(2-Acetylsulfamoylphenyl)pyrazin-2-ylmethyl]-5-propyl-1H-pyrazole-3-carbonyl}amino)-2-hydroxy-4-phenylbutyric acid], the IC50 at NEP enzyme was not above 100 nM. Moreover, at human AT1 receptor, the Ki was not above 100 nM.
Consider `CCCc1cc(C(=O)N[C@H](CC(C)C)CN(O)C=O)nn1Cc1ccc(-c2ccccc2-c2nnn[nH]2)cc1` [Example 3-25, 5-Propyl-1-[2′-(1H-tetrazol-5-yl)-biphenyl-4-ylmethyl]-1H-pyrazole-3-carboxylic acid {(R)-1-[(formylhydroxyamino)methyl]-3-methylbutyl}amide], for which the IC50 on NEP enzyme is not above 100 nM. Moreover, on human AT1 receptor, the Ki was not above 10 nM.
With `CCCc1cc(C(=O)N[C@@H](CC(=O)O)Cc2ccccc2Cl)nn1Cc1ccc(-c2ccccc2-c2nnn[nH]2)c(F)c1` [Example 3-18, (R)-4-(2-Chlorophenyl)-3-({1-[2-fluoro-2′-(1H-tetrazol-5-yl)biphenyl-4-ylmethyl]-5-propyl-1H-pyrazole-3-carbonyl}amino)butyric acid], the IC50 at NEP enzyme was not above 1000 nM. Further, at human AT1 receptor, the Ki was not above 10 nM.
The matching figures for `CCCc1cc(C(=O)N[C@@H](CC(=O)O)Cc2ccccc2)nn1Cc1ccc(-c2ccccc2-c2nnn[nH]2)nc1` [Example 14-6, (R)-4-Phenyl-3-[(5-propyl-1-{6-[2-(1H-tetrazol-5-yl)-phenyl]-pyridin-3-ylmethyl}-1H-pyrazole-3-carbonyl)amino]butyric acid]: not above 100 nM and not above 10 nM.
The like results for `CCCc1cc(C(=O)N[C@H](Cc2ccccc2)[C@@H](O)C(=O)O)nn1Cc1c(F)cc(-c2ccccc2-c2nnn[nH]2)cc1F` [Example 3-26, (2R,3R)-3-(1-((3,5-difluoro-2′-(1H-tetrazol-5-yl)biphenyl-4-yl)methyl)-5-propyl-1H-pyrazole-3-carboxamido)-2-hydroxy-4-phenylbutanoic acid] were, in that order, not above 100 nM and not above 100 nM.
Regarding `CCCc1cc(C(=O)N[C@@H](CS)Cc2ccccc2)nn1Cc1ccc(-c2ccccc2C(=O)O)cc1` [Example 9-6, 4′-[3-((R)-1-Mercaptomethyl-2-phenylethylcarbamoyl)-5-propylpyrazol-1-ylmethyl]biphenyl-2-carboxylic acid], the IC50 on NEP enzyme was not above 100 nM. In addition, the Ki on human AT1 receptor is not above 100 nM.
As for `CCCCc1cc(C(=O)N[C@@H](CS)CC(C)C)nn1Cc1ccc(-c2ccccc2C(=O)O)cc1F` [Example 9-3, 4′-[5-Butyl-3-((R)-1-mercaptomethyl-3-methylbutylcarbamoyl)-pyrazol-1-ylmethyl]-3′-fluorobiphenyl-2-carboxylic acid], at NEP enzyme, the IC50 was not above 100 nM. For the same compound, at human AT1 receptor, the Ki was not above 100 nM.
In the case of `CCCc1cc(C(=O)N[C@H](Cc2ccccc2)[C@@H](O)C(=O)O)nn1Cc1ccc(-c2ccccc2-c2nnn[nH]2)cc1F` [Example 3-23, (2R,3R)-3-(1-((3-fluoro-2′-(1H-tetrazol-5-yl)biphenyl-4-yl)methyl)-5-propyl-1H-pyrazole-3-carboxamido)-2-hydroxy-4-phenylbutanoic acid], the IC50 at NEP enzyme is not above 100 nM. Further, the Ki on human AT1 receptor is not above 10 nM.
The matching figures for `CCCc1cc(C(=O)N[C@@H](CS)Cc2ccccc2)nn1Cc1ccc(-c2ccccc2C(=O)O)cc1F` [Example 8, 4′-[3-((R)-1-Benzyl-2-mercaptoethylcarbamoyl)-5-propylpyrazol-1-ylmethyl]-3′-fluorobiphenyl-2-carboxylic acid]: not above 100 nM and not above 100 nM.
The matching figures for `CCCc1cc(C(=O)N[C@H](Cc2ccccc2)[C@@H](O)C(=O)O)nn1Cc1ccc(-c2ccccc2C(=O)O)c(F)c1F` [Example 9-7, 4′-[3-((1R,2R)-1-Benzyl-2-carboxy-2-hydroxyethylcarbamoyl)-5-propylpyrazol-1-ylmethyl]-2′,3′-difluorobiphenyl-2-carboxylic acid]: not above 100 nM and not above 100 nM.
The like results for `CCCc1cc(C(=O)N[C@H](Cc2ccccc2)[C@@H](O)C(=O)O)nn1Cc1ccc(-c2ccccc2S(=O)(=O)NC(C)=O)cc1` [Example 4, (2R,3R)-3-(1-((2′-(N-Acetylsulfamoyl)biphenyl-4-yl)methyl)-5-propyl-1H-pyrazole-3-carboxamido)-2-hydroxy-4-phenylbutanoic Acid] were, in that order, not above 100 nM and not above 10 nM.
As for `CCCc1cc(C(=O)N[C@H](Cc2ccccc2)[C@@H](O)C(=O)O)nn1Cc1ccc(-c2ccccc2S(=O)(=O)NC(=O)c2ccncc2)cc1` [Example 7-4, (2R,3R)-2-Hydroxy-4-phenyl-3-[(5-propyl-1-{2′-[(pyridine-4-carbonyl)sulfamoyl]biphenyl-4-ylmethyl}-1H-pyrazole-3-carbonyl)amino]butyric acid], the IC50 at NEP enzyme was not above 1000 nM. Further, the Ki on human AT1 receptor was not above 10 nM.
Take `CCCc1cc(C(=O)N[C@@H](CC(=O)O)Cc2ccccc2Br)nn1Cc1ccc(-c2ccccc2S(=O)(=O)NC(C)=O)cc1` [Example 6-8, (R)-3-{[1-(2′-Acetylsulfamoylbiphenyl-4-ylmethyl)-5-propyl-1H-pyrazole-3-carbonyl]amino}-4-(2-bromophenyl)butyric acid]: the IC50 on NEP enzyme was not above 1000 nM. For the same compound, the Ki on human AT1 receptor is not above 10 nM.
For the compound `CCCc1cc(C(=O)N[C@@H](CS)CC(C)C)nn1Cc1ccc(-c2ccccc2-c2nnn[nH]2)cc1` [Example 3-7, 5-Propyl-1-[2′-(1H-tetrazol-5-yl)biphenyl-4-ylmethyl]-1H-pyrazole-3-carboxylic acid ((R)-1-mercaptomethyl-3-methylbutyl)amide], on NEP enzyme, the IC50 was not above 100 nM. Also, on human AT1 receptor, the Ki was not above 10 nM.
